Target: GDP-loaded KRAS G12D (Homo sapiens, UniProt P01116, G12D)
Assay: KRAS G12D Probe Displacement Assay
Format: binding
Conditions: KRAS G12D 0.5 nM, biotinylated probe 2 4 nM; Table 6 letters; read-out: KRAS G12D Probe Displacement Assay IC50 (class)

Chain of GDP-loaded KRAS G12D (P01116 1-188 isoform P01116-2 G12D): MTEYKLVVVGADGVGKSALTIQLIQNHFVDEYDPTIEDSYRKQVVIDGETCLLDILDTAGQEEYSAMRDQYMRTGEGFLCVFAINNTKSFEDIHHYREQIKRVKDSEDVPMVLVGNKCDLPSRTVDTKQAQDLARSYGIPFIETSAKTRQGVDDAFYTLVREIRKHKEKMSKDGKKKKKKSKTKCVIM

First: Cc1cc(N)nc(-c2c(Cl)cc3c(N4CC5CCC(C4)N5)nc(OCC4(CO)CCCC4)nc3c2F)c1C(F)(F)F [Example E198, (1-(((7-(6-amino-4-methyl-3-(trifluoromethyl)pyridin-2-yl)-4-(3,8-diazabicyclo[3.2.1]octan-3-yl)-6-chloro-8-fluoroquinazolin-2-yl)oxy)methyl)cyclopentyl) methanol]
Second: Cc1cc(N)nc(-c2c(Cl)cc3c(N4CC5CCC(C4)N5)nc(OCC4(CO)CCC4)nc3c2F)c1C(F)(F)F [Example E200, (1-(((7-(6-amino-4-methyl-3-(trifluoromethyl)pyridin-2-yl)-4-(3,8-diazabicyclo[3.2.1]octan-3-yl)-6-chloro-8-fluoroquinazolin-2-yl)oxy)methyl)cyclobutyl) methanol]
The IC50 of the first is higher: 50 to 100 nM for the first, under 50 nM for the second.

First: Cc1cc(N)nc(-c2c(Cl)cc3c(N4CC5CCC(C4)N5)nc(OCC4(C#N)CCCC4)nc3c2F)c1C(F)(F)F [Example E199, 1-(((7-(6-amino-4-methyl-3-(trifluoromethyl)pyridin-2-yl)-4-(3,8-diazabicyclo[3.2.1]octan-3-yl)-6-chloro-8-fluoroquinazolin-2-yl)oxy)methyl)cyclopentane-1-carbonitrile]
Second: Cc1cc(N)nc(-c2c(Cl)cc3c(N4CC5CCC(C4)N5)nc(OCC4(C#N)CCOC4)nc3c2F)c1C(F)(F)F (stereo not shown) [Example E206, 3-(((7-(6-amino-4-methyl-3-(trifluoromethyl)pyridin-2-yl)-4-(3,8-diazabicyclo[3.2.1]octan-3-yl)-6-chloro-8-fluoroquinazolin-2-yl)oxy)methyl)tetrahydrofuran-3-carbonitrile]
The IC50 of the first is higher: 50 to 100 nM for the first, under 50 nM for the second.

Compared with `Cc1cc(N)nc(-c2c(Cl)cc3c(N4CC5CCC(C4)N5)nc(OCC4(C)CCCOC4)nc3c2F)c1C(F)(F)F` (stereo not shown) [Example E201, 6-(4-(3,8-diazabicyclo[3.2.1]octan-3-yl)-6-chloro-8-fluoro-2-((3-methyltetrahydro-2H-pyran-3-yl)methoxy)quinazolin-7-yl)-4-methyl-5-(trifluoromethyl)pyridin-2-amine], `Cc1cc(N)nc(-c2c(Cl)cc3c(N4CC5CCC(C4)N5)nc(OCC4(C)CCOC4)nc3c2F)c1C(F)(F)F` (stereo not shown) [Example E203, 6-(4-(3,8-diazabicyclo[3.2.1]octan-3-yl)-6-chloro-8-fluoro-2-((3-methyltetrahydrofuran-3-yl)methoxy)quinazolin-7-yl)-4-methyl-5-(trifluoromethyl)pyridin-2-amine] is lower in IC50: 100 to 1000 nM for the first, 50 to 100 nM for the second.

First: Cc1cc(N)nc(-c2c(Cl)cc3c(N4CC5CCC(C4)N5)nc(OCC4(C)CCOCC4)nc3c2F)c1C(F)(F)F [Example E202, 6-(4-(3,8-diazabicyclo[3.2.1]octan-3-yl)-6-chloro-8-fluoro-2-((4-methyltetrahydro-2H-pyran-4-yl)methoxy)quinazolin-7-yl)-4-methyl-5-(trifluoromethyl)pyridin-2-amine]
Second: Cc1cc(N)nc(-c2c(Cl)cc3c(N4CC5CCC(C4)N5)nc(OCC4(C)CNC(=O)C4)nc3c2F)c1C(F)(F)F (stereo not shown) [Example E208, 4-(((7-(6-amino-4-methyl-3-(trifluoromethyl)pyridin-2-yl)-4-(3,8-diazabicyclo[3.2.1]octan-3-yl)-6-chloro-8-fluoroquinazolin-2-yl)oxy)methyl)-4-methylpyrrolidin-2-one]
The IC50 of the first is higher: 50 to 100 nM for the first, under 50 nM for the second.

`COCC(C#N)(CO)COc1nc(N2CC3CCC(C2)N3)c2cc(Cl)c(-c3nc(N)cc(C)c3C(F)(F)F)c(F)c2n1` (stereo not shown) [Example E204, 3-((7-(6-amino-4-methyl-3-(trifluoromethyl)pyridin-2-yl)-4-(3,8-diazabicyclo [3.2.1]octan-3-yl)-6-chloro-8-fluoroquinazolin-2-yl)oxy)-2-(hydroxymethyl)-2-(methoxymethyl)propanenitrile] and `Cc1cc(N)nc(-c2c(Cl)cc3c(N4CC5CCC(C4)N5)nc(OCC(C#N)(CO)CO)nc3c2F)c1C(F)(F)F` [Example E205, 3-((7-(6-amino-4-methyl-3-(trifluoromethyl)pyridin-2-yl)-4-(3,8-diazabicyclo [3.2.1]octan-3-yl)-6-chloro-8-fluoroquinazolin-2-yl)oxy)-2,2-bis(hydroxymethyl) propanenitrile] cannot be ordered by IC50: under 50 nM for the first, under 50 nM for the second.

`Cc1cc(N)nc(-c2c(Cl)cc3c(N4CC5CCC(C4)N5)nc(OCC4(C)CCC(=O)N4)nc3c2F)c1C(F)(F)F` (stereo not shown) [Example E207, 5-(((7-(6-amino-4-methyl-3-(trifluoromethyl)pyridin-2-yl)-4-(3,8-diazabicyclo[3.2.1]octan-3-yl)-6-chloro-8-fluoroquinazolin-2-yl)oxy)methyl)-5-methylpyrrolidin-2-one] and `CC1(COc2nc(N3CC4CCC(C3)N4)c3cc(C(F)(F)F)c(-c4ccc(F)c5sc(N)nc45)c(F)c3n2)CCC(=O)N1` (stereo not shown) [Example E212, 5-(((7-(2-amino-7-fluorobenzo[d]thiazol-4-yl)-4-(3,8-diazabicyclo[3.2.1]octan-3-yl)-8-fluoro-6-(trifluoromethyl)quinazolin-2-yl)oxy)methyl)-5-methylpyrrolidin-2-one] cannot be ordered by IC50: under 50 nM for the first, under 50 nM for the second.

First: Nc1nc2c(-c3c(C(F)(F)F)cc4c(N5CC6CCC(C5)N6)nc(OCC5COCC5O)nc4c3F)ccc(F)c2s1 (stereo not shown) [Example E209, 4-(((7-(2-amino-7-fluorobenzo[d]thiazol-4-yl)-4-(3,8-diazabicyclo [3.2.1]octan-3-yl)-8-fluoro-6-(trifluoromethyl)quinazolin-2-yl)oxy)methyl)tetrahydrofuran-3-ol]
Second: Nc1nc2c(-c3c(C(F)(F)F)cc4c(N5CC6CCC(C5)N6)nc(OCC5CCCC5O)nc4c3F)ccc(F)c2s1 (stereo not shown) [Example E220]
The IC50 of the first is lower: under 50 nM for the first, 50 to 100 nM for the second. The first is the more potent here.

`Nc1nc2c(-c3c(C(F)(F)F)cc4c(N5CC6CCC(C5)N6)nc(OCC5C6COCC65)nc4c3F)ccc(F)c2s1` (stereo not shown) [Example E210, 4-(2-((3-oxabicyclo[3.1.0]hexan-6-yl)methoxy)-4-(3,8-diazabicyclo[3.2.1]octan-3-yl)-8-fluoro-6-(trifluoromethyl)quinazolin-7-yl)-7-fluorobenzo[d]thiazol-2-amine] and `Nc1nc2c(-c3c(C(F)(F)F)cc4c(N5CC6CCC(C5)N6)nc(OCC5CCCOC5)nc4c3F)ccc(F)c2s1` (stereo not shown) [Example E216, 4-(4-(3,8-diazabicyclo[3.2.1]octan-3-yl)-8-fluoro-2-((tetrahydro-2H-pyran-3-yl)methoxy)-6-(trifluoromethyl)quinazolin-7-yl)-7-fluorobenzo[d]thiazol-2-amine] cannot be ordered by IC50: under 50 nM for the first, under 50 nM for the second.

`N#CC1(COc2nc(N3CC4CCC(C3)N4)c3cc(C(F)(F)F)c(-c4ccc(F)c5sc(N)nc45)c(F)c3n2)CCOC1` (stereo not shown) [Example E211, 3-(((7-(2-amino-7-fluorobenzo[d]thiazol-4-yl)-4-(3,8-diazabicyclo [3.2.1]octan-3-yl)-8-fluoro-6-(trifluoromethyl)quinazolin-2-yl)oxy)methyl)tetrahydrofuran-3-carbonitrile] and `N#CC1(COc2nc(N3CC4CCC(C3)N4)c3cc(C(F)(F)F)c(-c4ccc(F)c5sc(N)nc45)c(F)c3n2)CCC1` [Example E214, 1-(((7-(2-amino-7-fluorobenzo[d]thiazol-4-yl)-4-(3,8-diazabicyclo [3.2.1]octan-3-yl)-8-fluoro-6-(trifluoromethyl)quinazolin-2-yl)oxy)methyl)cyclobutane-1-carbonitrile] cannot be ordered by IC50: under 50 nM for the first, under 50 nM for the second.

`Nc1nc2c(-c3c(C(F)(F)F)cc4c(N5CC6CCC(C5)N6)nc(OCC5CCCCC5O)nc4c3F)ccc(F)c2s1` (stereo not shown) [Example E213, 2-(((7-(2-amino-7-fluorobenzo[d]thiazol-4-yl)-4-(3,8-diazabicyclo[3.2.1]octan-3-yl)-8-fluoro-6-(trifluoromethyl)quinazolin-2-yl)oxy)methyl)cyclohexan-1-ol] and `Nc1nc2c(-c3c(C(F)(F)F)cc4c(N5CC6CCC(C5)N6)nc(OC[C@@H]5COCCO5)nc4c3F)ccc(F)c2s1` [Example E219, 4-(2-(((S)-1,4-dioxan-2-yl)methoxy)-4-(3,8-diazabicyclo[3.2.1]octan-3-yl)-8-fluoro-6-(trifluoromethyl)quinazolin-7-yl)-7-fluorobenzo[d]thiazol-2-amine] cannot be ordered by IC50: under 50 nM for the first, under 50 nM for the second.

`CC1(COc2nc(N3CC4CCC(C3)N4)c3cc(C(F)(F)F)c(-c4ccc(F)c5sc(N)nc45)c(F)c3n2)COCCO1` (stereo not shown) [Example E215, 4-(4-(3,8-diazabicyclo[3.2.1]octan-3-yl)-8-fluoro-2-((2-methyl-1,4-dioxan-2-yl)methoxy)-6-(trifluoromethyl)quinazolin-7-yl)-7-fluorobenzo[d]thiazol-2-amine] and `Nc1nc2c(-c3c(C(F)(F)F)cc4c(N5CC6CCC(C5)N6)nc(OCC5(F)CCOCC5)nc4c3F)ccc(F)c2s1` [Example E218, 4-(4-(3,8-diazabicyclo[3.2.1]octan-3-yl)-8-fluoro-2-((4-fluorotetra hydro-2H-pyran-4-yl)methoxy)-6-(trifluoromethyl)quinazolin-7-yl)-7-fluorobenzo[d]thiazol-2-amine] cannot be ordered by IC50: under 50 nM for the first, under 50 nM for the second.

`Nc1nc2c(-c3c(C(F)(F)F)cc4c(N5CC6CCC(C5)N6)nc(OCC56COCC5C6)nc4c3F)ccc(F)c2s1` (stereo not shown) [Example E217, 4-(2-((3-oxabicyclo[3.1.0]hexan-1-yl)methoxy)-4-(3,8-diazabicyclo[3.2.1]octan-3-yl)-8-fluoro-6-(trifluoromethyl)quinazolin-7-yl)-7-fluorobenzo[d]thiazol-2-amine] and `Nc1nc2c(-c3c(C(F)(F)F)cc4c(N5CC6CCC(C5)N6)nc(OCC56CC(O)(C5)C6)nc4c3F)ccc(F)c2s1` [Example E222, 3-(((7-(2-amino-7-fluorobenzo[d]thiazol-4-yl)-4-(3,8-diazabicyclo [3.2.1]octan-3-yl)-8-fluoro-6-(trifluoromethyl)quinazolin-2-yl)oxy)methyl)bicyclo[1.1.1]pentan-1-ol] cannot be ordered by IC50: under 50 nM for the first, under 50 nM for the second.

In the case of `Nc1nc2c(-c3c(C(F)(F)F)cc4c(N5CC6CCC(C5)N6)nc(OCC5(O)CCOCC5)nc4c3F)ccc(F)c2s1` [Example E221, 4-(((7-(2-amino-7-fluorobenzo[d]thiazol-4-yl)-4-(3,8-diazabicyclo [3.2.1]octan-3-yl)-8-fluoro-6-(trifluoromethyl)quinazolin-2-yl)oxy)methyl)tetrahydro-2H-pyran-4-ol], the IC50 is reported as under 50 nM.
